Assay results as given in ChEMBL document CHEMBL1201862, “PubChem BioAssay data set” (2004).
The source made the active and inactive calls.

What was measured:
[1] = system: HEK293; test: EBV LMP1 TES2 canonical NF-kB signalling blockers – cell-based, HEK293, luciferase, cherry-pick, dose response (AID 588343); type: functional; conditions: Homo sapiens
[2] = molecular target: Exodeoxyribonuclease V (Escherichia coli (strain K12), UniProt P04993+P07648+P08394); test: RecBCD inhibition via phage-restricted bacterial growth – absorbance, V66 E. coli, mutant T4 phage, counter-screen for AddAB inhibitor project, dose response (AID 492957); type: functional, cell-based, Escherichia coli str. K-12 substr. MG1655
[3] = HepG2 cell cytotoxicity, dose response, cytotoxicity control for non-replicating M. tuberculosis project (AID 489018); type: functional; conditions: Mycobacterium tuberculosis
[4] = cells; type: functional, cell-based
[5] = system: Streptococcus; test: GAS UMAA2166 growth inhibition – luminescence, BacTiterGlo, counter-screen for streptokinase expression inhibitor project, dose response (AID 1915); type: functional, organism-based;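 also: potency for reduction of bacterial viability or growth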
[6] = Luminescence-based counterscreen assay for KLF5 inhibitors: dose response cell-based high throughput screening assay to identify cytotoxic compounds using the IEC-6 intestinal epithelial cell line. [Related pubchem assays: 1700 (Primary screen.), 1834 (Confirmation screen.), 1858 (Summary AID.), 1905 (Counterscreen.)]; type: functional
[7] = system: INS1; test: INS-1E survival protection against cytokine death – cell-based, luminescence, retest, dose response (AID 449756); type: functional; conditions: Rattus norvegicus;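 also: cell death triggered by IL-1 beta plus TNF-alpha plus IFN-gamma mixture; protective hits raise ATP signal compared with cytokine alone wells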
[8] = cells; type: functional, cell-based; remark: listed apart in the source
[9] = THP-1 cell cytotoxicity, dose response, cytotoxicity control for non-replicating M. tuberculosis project (AID 489025); type: functional
[10] = system: Streptococcus sp. 'group A'; test: Streptococcus pyogenes SK(-)GAS viability under kanamycin – luminescence, BacTiterGlo, confirmation, counter-screen for streptokinase expression inhibitor project, dose response (AID 1900); type: functional, organism-based
[11] = Counterscreen for AddAB inhibitors: absorbance-based bacterial cell-based high throughput dose response assay for inhibitors of bacterial viability. [Related pubchem assays (depositor defined):AID435030, AID449728, AID449731, AID488942, AID488955, AID488956]; type: functional
[12] = HEK-293T viability loss after treatment – luminescence, T-cell screen hits, cytotoxicity control for TCR NF-kB inhibitor project, dose response (AID 489026); type: functional, cell-based;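 also: cells exposed to compound about 14 hours before the viability readout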
[13] = Vero E6 cell cytotoxicity, dose response, cytotoxicity control for non-replicating M. tuberculosis project, secondary assay (AID 492998); type: functional, VeroE6; conditions: Vero C1008
[14] = molecular target: T1, Hexokinase-1 (Homo sapiens, UniProt P19367); test: HK1 enzyme activation by HKDC1 hits – biochemical, selectivity assay for HKDC1 activator project, dose response (AID 504762); type: functional
T1 sequence (P19367 whole entry): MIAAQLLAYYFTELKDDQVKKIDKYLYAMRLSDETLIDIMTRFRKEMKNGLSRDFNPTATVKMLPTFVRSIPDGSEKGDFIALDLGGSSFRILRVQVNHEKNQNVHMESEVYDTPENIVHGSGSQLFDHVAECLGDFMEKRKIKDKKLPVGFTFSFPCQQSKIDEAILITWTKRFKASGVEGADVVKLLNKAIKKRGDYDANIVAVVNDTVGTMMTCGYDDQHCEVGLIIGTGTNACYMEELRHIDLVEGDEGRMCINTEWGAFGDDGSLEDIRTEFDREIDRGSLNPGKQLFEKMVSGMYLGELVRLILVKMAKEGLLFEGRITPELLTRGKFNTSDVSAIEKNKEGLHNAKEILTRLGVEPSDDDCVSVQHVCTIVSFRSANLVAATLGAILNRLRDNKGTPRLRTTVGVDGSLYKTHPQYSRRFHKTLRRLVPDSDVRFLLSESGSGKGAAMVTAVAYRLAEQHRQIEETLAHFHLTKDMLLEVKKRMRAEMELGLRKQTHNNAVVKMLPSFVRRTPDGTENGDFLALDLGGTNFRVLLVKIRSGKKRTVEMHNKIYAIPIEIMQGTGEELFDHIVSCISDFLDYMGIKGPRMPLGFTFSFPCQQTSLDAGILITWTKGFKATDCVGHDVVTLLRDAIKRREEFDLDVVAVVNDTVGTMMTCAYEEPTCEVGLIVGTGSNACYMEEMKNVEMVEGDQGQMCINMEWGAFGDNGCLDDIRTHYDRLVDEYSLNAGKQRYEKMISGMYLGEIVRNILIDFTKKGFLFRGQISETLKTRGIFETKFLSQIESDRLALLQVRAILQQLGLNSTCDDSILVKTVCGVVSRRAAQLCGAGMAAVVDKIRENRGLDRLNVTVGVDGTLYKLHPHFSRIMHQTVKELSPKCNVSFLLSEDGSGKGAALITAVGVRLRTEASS

[15] = molecular target: T2, Hexokinase HKDC1 (Homo sapiens, UniProt Q2TB90); test: activation of HKDC1 glucose phosphorylation – biochemical, W721R variant, dose response (AID 504730); type: functional
T2 sequence (Q2TB90 whole entry): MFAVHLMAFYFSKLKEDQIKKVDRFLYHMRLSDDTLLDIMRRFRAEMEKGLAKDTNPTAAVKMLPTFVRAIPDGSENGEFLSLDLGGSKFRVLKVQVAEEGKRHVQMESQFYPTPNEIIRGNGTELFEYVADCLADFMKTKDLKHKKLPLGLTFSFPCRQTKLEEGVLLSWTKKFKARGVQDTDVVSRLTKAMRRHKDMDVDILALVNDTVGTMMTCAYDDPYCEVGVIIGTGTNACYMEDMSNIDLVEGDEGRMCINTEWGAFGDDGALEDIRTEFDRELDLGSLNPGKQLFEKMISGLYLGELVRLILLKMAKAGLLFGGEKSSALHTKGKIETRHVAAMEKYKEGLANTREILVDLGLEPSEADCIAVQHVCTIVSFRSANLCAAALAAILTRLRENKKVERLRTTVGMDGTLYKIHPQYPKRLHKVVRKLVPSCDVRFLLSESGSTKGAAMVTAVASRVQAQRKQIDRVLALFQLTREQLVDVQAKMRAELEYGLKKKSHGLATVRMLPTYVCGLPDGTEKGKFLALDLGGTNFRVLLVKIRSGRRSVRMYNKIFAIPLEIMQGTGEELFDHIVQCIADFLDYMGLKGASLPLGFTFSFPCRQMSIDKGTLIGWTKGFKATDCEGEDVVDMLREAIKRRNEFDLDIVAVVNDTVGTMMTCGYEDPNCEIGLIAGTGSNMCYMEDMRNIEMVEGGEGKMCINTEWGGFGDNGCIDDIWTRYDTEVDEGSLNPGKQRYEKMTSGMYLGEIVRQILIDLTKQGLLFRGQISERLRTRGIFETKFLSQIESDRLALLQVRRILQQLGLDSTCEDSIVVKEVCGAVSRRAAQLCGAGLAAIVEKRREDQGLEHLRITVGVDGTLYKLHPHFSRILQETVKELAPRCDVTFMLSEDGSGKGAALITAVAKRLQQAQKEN

[16] = molecular target: T3, Corticotropin-releasing factor receptor 2/Corticotropin-releasing factor-binding protein (Homo sapiens, UniProt P24387+Q13324); test: activators of CRF receptor 2 with binding protein – uHTS hits, confirmation (AID 602473); type: functional; conditions: read-out: EC50_Mean
T3 sequence (Q13324 whole entry): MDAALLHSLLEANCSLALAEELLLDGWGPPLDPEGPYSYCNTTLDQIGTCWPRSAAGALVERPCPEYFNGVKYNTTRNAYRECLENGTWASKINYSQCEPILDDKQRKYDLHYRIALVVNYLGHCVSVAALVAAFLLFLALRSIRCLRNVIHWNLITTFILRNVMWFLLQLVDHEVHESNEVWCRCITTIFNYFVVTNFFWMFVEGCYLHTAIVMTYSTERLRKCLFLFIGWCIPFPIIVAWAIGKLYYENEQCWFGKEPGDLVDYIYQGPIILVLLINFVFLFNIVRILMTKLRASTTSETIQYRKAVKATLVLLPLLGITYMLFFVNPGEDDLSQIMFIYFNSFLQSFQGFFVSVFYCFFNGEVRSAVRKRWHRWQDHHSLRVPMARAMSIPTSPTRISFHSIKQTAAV
T3 sequence (P24387 whole entry): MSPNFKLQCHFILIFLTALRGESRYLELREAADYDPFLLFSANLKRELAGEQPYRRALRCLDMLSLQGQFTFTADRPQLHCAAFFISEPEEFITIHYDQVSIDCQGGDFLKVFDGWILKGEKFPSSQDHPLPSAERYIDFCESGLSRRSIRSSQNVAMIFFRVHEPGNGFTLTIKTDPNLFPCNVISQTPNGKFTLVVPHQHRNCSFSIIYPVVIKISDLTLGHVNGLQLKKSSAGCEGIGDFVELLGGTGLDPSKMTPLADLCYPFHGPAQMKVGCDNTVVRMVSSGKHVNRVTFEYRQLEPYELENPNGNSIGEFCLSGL

[17] = molecular target: T4, Short transient receptor potential channel 4 (Mus musculus, UniProt Q9QUQ5); test: calcium entry via TRPC4 opening agents – cell-based, HEK293 TRPC4/mu-opioid, Fluo-4 calcium, dose response (AID 434937); type: functional
T4 sequence (Q9QUQ5 whole entry): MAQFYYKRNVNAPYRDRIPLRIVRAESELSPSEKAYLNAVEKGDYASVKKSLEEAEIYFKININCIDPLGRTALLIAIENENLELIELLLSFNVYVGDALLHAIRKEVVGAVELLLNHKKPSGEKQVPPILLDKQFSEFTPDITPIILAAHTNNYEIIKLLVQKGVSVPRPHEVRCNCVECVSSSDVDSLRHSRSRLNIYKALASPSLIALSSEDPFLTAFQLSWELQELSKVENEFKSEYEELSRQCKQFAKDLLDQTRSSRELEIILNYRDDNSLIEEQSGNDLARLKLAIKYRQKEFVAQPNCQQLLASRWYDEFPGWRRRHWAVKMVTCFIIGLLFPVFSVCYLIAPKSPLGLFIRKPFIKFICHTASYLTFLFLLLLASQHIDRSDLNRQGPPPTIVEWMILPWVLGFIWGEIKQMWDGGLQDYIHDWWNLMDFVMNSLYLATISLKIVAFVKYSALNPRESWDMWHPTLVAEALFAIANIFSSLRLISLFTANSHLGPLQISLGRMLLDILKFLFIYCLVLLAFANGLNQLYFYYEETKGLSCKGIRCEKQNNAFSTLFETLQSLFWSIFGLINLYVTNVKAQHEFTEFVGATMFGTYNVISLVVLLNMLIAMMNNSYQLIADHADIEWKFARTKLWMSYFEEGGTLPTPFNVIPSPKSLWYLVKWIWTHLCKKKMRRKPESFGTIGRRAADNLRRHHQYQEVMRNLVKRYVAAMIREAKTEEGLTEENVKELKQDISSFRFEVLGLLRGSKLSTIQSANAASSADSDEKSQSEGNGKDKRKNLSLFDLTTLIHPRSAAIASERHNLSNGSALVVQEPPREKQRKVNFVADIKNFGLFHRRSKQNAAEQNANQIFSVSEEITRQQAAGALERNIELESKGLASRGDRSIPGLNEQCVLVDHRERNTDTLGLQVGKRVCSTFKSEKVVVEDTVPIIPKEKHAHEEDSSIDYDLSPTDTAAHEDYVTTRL

[18] = molecular target: T5, Alkaline phosphatase, tissue-nonspecific isozyme (Homo sapiens, UniProt P05186); test: activation of tissue-nonspecific alkaline phosphatase – biochemical, TNAP isozyme, mouse IAP uHTS hits, selectivity assay for mouse IAP activator project, dose response (AID 488880); type: functional
T5 sequence (P05186 whole entry): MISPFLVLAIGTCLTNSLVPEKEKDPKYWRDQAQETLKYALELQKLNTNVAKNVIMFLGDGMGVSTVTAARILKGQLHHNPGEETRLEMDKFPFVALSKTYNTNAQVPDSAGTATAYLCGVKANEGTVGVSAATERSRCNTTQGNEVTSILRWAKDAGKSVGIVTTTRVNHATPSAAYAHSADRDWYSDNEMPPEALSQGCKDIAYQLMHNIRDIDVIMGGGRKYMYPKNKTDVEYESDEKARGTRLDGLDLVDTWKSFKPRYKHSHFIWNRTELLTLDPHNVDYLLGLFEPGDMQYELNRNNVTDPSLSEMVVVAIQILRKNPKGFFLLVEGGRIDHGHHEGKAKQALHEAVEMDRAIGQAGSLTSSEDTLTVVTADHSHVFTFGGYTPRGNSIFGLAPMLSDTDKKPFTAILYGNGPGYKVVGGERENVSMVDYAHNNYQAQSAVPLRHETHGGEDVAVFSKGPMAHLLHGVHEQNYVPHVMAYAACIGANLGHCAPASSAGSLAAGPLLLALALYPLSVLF

[19] = molecular target: Intestinal-type alkaline phosphatase (Mus musculus, UniProt P24822); test: mouse intestinal alkaline phosphatase activators, dose response, biochemical, luminescence, uHTS hits (AID 488783); type: functional
[20] = molecular target: 72 kDa type IV collagenase (Homo sapiens, UniProt P08253); test: Dose Response validation of uHTS RPN11 inhibitor hits using a MMP-2 Fluorescence assay.; type: functional
[21] = molecular target: Prothrombin (Bos taurus, UniProt P00735); test: thrombin protease inhibitors – biochemical, fluorescence polarization, uHTS hits, dose response (AID 602369); type: functional
[22] = molecular target: 26S proteasome non-ATPase regulatory subunit 14 (Homo sapiens, UniProt O00487); test: inhibition of proteasome subunit RPN11 – biochemical, fluorescence polarization, uHTS hits, confirmation (AID 602368); type: functional
[23] = molecular target: Intestinal-type alkaline phosphatase (Homo sapiens, UniProt P09923); test: activation of human intestinal alkaline phosphatase – biochemical, dose response (AID 488873); type: functional
Intestinal-type alkaline phosphatase (Homo sapiens, UniProt P09923), sequence (P09923 whole entry): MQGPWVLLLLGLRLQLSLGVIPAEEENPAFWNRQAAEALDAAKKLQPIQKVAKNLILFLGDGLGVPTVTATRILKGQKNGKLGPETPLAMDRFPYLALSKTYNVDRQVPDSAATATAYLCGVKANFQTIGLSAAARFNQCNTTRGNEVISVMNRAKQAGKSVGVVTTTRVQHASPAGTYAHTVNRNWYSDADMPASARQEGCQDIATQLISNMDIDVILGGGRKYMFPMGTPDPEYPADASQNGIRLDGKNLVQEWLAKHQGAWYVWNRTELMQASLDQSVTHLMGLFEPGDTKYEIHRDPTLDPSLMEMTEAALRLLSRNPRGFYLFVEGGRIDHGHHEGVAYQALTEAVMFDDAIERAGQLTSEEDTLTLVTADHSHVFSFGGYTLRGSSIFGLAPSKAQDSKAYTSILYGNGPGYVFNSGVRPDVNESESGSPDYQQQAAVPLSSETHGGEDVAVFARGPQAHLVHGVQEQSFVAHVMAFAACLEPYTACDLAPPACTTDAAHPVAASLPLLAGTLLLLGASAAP

Exodeoxyribonuclease V, sequence (P04993 whole entry): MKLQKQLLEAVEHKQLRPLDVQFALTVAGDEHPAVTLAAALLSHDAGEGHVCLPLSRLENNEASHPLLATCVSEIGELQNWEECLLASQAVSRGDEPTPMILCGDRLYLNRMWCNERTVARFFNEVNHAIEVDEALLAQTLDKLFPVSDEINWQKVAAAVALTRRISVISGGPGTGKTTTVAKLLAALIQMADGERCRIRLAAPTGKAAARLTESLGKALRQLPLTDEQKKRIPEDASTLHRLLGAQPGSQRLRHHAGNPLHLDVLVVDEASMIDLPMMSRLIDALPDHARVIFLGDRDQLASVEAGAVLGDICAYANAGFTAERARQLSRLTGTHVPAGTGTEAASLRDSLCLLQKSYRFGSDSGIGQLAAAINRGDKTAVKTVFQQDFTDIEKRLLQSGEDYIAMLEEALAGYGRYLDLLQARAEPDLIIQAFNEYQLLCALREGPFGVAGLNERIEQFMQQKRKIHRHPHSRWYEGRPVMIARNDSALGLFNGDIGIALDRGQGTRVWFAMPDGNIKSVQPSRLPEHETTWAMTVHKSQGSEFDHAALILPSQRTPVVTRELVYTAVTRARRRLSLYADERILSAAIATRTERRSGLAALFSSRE
Exodeoxyribonuclease V, sequence (P07648 whole entry): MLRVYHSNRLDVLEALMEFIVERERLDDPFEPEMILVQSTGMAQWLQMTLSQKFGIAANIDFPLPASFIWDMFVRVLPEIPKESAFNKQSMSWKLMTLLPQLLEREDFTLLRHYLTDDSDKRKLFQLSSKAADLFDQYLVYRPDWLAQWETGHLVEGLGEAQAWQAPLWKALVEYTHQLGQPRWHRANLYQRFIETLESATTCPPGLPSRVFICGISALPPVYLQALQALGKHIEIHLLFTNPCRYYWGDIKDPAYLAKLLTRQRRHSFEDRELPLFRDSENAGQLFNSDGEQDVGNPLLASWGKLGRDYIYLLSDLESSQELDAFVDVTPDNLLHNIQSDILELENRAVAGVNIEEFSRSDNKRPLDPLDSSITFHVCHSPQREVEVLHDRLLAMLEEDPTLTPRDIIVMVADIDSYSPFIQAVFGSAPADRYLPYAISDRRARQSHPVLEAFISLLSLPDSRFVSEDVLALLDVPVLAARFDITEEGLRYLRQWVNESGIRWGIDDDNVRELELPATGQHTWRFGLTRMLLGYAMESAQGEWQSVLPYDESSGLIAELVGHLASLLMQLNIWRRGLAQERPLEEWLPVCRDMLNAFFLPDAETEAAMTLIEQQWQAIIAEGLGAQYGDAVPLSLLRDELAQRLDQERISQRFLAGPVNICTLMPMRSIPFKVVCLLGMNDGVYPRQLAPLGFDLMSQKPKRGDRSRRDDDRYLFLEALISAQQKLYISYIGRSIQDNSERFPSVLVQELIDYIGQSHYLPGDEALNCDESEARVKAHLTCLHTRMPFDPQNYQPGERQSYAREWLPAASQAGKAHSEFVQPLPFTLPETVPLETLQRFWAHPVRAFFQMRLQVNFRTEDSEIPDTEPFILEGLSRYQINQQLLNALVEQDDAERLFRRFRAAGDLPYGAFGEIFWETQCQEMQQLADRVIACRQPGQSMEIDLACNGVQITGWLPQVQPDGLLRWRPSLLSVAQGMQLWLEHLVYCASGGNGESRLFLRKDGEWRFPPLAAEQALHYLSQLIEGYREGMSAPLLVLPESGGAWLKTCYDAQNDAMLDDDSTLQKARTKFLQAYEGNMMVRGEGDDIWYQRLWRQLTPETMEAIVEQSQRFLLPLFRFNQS
Exodeoxyribonuclease V, sequence (P08394 whole entry): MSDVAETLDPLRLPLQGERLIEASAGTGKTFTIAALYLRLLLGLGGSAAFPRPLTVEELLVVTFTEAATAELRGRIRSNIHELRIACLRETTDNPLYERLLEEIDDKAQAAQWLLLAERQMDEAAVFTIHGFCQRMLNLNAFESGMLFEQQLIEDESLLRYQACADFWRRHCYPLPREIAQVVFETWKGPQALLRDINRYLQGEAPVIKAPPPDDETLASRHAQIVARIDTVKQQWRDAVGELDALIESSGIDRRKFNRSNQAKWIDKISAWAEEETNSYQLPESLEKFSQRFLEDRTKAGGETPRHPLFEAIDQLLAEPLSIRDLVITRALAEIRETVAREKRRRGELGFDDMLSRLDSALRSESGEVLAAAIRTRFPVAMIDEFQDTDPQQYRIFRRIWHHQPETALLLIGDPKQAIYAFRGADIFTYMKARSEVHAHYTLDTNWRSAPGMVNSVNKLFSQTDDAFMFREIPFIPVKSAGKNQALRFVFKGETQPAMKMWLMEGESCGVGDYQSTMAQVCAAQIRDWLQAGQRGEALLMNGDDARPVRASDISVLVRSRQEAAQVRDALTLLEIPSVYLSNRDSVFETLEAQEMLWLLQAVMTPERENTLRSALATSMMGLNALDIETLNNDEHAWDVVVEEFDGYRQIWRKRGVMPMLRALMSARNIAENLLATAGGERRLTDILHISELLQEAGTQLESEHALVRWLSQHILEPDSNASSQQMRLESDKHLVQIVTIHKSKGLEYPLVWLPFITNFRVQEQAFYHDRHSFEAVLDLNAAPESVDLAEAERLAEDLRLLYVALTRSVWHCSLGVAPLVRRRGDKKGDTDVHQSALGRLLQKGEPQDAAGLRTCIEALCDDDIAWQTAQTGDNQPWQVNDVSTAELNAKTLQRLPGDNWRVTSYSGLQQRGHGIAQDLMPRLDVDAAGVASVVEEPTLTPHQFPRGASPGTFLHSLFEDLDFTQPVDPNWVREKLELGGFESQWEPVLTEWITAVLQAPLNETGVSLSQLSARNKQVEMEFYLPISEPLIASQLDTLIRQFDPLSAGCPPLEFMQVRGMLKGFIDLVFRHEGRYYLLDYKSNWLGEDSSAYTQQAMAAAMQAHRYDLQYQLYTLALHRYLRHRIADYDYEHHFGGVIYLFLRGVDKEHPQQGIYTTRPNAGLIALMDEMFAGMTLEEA
Intestinal-type alkaline phosphatase (Mus musculus, UniProt P24822), sequence (P24822 whole entry): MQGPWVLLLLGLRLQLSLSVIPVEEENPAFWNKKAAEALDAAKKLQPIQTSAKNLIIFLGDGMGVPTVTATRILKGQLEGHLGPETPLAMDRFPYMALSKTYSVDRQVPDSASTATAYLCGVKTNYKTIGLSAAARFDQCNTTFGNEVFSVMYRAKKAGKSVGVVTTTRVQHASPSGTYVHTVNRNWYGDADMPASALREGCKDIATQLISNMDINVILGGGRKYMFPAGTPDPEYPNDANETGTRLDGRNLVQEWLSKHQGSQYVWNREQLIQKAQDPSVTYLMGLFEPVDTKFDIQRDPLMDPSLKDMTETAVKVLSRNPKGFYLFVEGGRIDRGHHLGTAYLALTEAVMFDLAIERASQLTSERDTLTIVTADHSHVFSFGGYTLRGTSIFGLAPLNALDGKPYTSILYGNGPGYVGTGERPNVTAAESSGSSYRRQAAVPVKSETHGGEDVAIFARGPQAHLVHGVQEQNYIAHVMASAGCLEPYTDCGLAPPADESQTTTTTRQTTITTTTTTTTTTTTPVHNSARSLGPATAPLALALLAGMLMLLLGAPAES
26S proteasome non-ATPase regulatory subunit 14, sequence (O00487 whole entry): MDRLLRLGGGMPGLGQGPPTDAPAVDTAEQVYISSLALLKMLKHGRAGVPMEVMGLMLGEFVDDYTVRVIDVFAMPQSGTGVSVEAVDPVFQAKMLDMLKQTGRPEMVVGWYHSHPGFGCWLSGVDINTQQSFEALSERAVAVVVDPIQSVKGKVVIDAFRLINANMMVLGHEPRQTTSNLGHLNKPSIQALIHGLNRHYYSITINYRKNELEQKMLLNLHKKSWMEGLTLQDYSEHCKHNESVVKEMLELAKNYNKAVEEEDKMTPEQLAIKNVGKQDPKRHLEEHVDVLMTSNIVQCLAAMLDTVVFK
72 kDa type IV collagenase, sequence (P08253 whole entry): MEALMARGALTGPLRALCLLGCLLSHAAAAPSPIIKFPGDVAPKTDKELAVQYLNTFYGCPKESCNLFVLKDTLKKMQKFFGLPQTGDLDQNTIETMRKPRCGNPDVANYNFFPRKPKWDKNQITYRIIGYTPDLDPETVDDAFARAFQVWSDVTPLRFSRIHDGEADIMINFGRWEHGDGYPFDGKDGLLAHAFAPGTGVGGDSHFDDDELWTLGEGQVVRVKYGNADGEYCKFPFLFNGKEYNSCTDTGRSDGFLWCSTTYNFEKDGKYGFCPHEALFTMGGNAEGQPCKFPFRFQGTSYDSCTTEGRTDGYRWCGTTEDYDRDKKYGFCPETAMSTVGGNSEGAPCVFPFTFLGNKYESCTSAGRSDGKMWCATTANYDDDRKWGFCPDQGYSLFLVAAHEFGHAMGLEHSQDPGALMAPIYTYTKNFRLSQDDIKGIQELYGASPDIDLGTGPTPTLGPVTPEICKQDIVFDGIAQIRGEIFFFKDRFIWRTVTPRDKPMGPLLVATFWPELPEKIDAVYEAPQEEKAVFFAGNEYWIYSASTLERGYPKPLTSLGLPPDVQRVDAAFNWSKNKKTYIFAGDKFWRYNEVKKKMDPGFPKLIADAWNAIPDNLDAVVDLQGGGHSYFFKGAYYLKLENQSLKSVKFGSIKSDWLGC

In the case of O=C(N/N=C/c1c(O)ccc2ccccc12)c1ccc(Br)o1, the AC50 [1] is reported as 6.22 µM (active), the IC50 [2] is reported as > 119 µM (inactive) and the CC50 [3] is reported as 5.73 µM (active). The EC50 [4] was > 350 µM (not active), the EC50 [5] was 2.83 µM (active) and the IC50 [6] was 9.35 µM (active). The AC50 [7] was 0.779 µM (active), the EC50 [8] was 37.3 µM (active) and the CC50 [9] was 0.493 µM (active). For the same molecule, the EC50 [10] was 0.982 µM (active), the IC50 [11] was > 119 µM (inactive) and the IC50 [12] was > 80 µM (inactive). The CC50 [13] was 2.71 µM (active).

For COC(=O)Cn1c2ccc(F)cc2c2nc(C)sc21, the EC50 [14] was 8.1 µM (active) and the EC50 [15] was 8.74 µM (active).

With CCC1(c2ccc(F)cc2)NC(=O)N(CC(=O)c2cc(C)n(C3CC3)c2C)C1=O (stereo not drawn) the EC50 [16] was 4.88 µM (active) and the EC50 [17] was 5.96 µM (active).

With CN(CCO)c1ccc(C=NNc2ccc([N+](=O)[O-])cc2S(=O)(=O)Nc2ccccc2C(=O)O)cc1 the EC50 [18] was 19.7 µM (active), the EC50 [19] was 17.5 µM (active) and the IC50 [20] was > 100 µM (inactive). The IC50 [21] was 36.4 µM (active), the IC50 [22] was 37 µM (active) and the EC50 [23] was 26.6 µM (active).
